Data as given in patent publication US20220221458A1, “NOROVIRUS-BINDING PEPTIDE” (Kao Corporation, priority 2019, published 2022).

Test system: norovirus VLPs (GII.4, GII.3, GII.17)
Experiment: In vitro selection by cDNA display against VLPs with appearance frequency analysis of sequences
Details: count among peptide aptamer sequences obtained after in vitro selection cycles (7 cycles GII.4, 5 cycles GII.3 and GII.17)

Substance	Appearance Frequency
249 (SIITRR; Designed peptide) [compound 249]	6
50 (VIEMLD; Designed peptide) [compound 50]	10
109 (GCHYQF; Designed peptide) [compound 109]	7
68 (SSPRSH; Designed peptide) [compound 68]	9
214 (MSNKMV; Designed peptide) [compound 214]	6
218 (NGHSHA; Designed peptide) [compound 218]	6
175 (FPFYHR; Designed peptide) [compound 175]	6
116 (HHRLHG; Designed peptide) [compound 116]	7
88 (SITVLY; Designed peptide) [compound 88]	8
17 (RIGHMR; Designed peptide) [compound 17]	13
64 (RKLFRN; Designed peptide) [compound 64]	9
250 (SKVIRW; Designed peptide) [compound 250]	6
240 (RNHSRI; Designed peptide) [compound 240]	6
14 (RSVRMH; Designed peptide) [compound 14]	14
20 (DYVFCG; Designed peptide) [compound 20]	12
6 (FLDTLG; Designed peptide) [compound 6]	17
238 (RLHQCR; Designed peptide) [compound 238]	6
108 (FWHARL; Designed peptide) [compound 108]	7
211 (LTALSV; Designed peptide) [compound 211]	6
144 (RRGDNY; Designed peptide) [compound 144]	7
61 (PVRALC; Designed peptide) [compound 61]	9

Substance	Appearance Frequency
215 (NAVSLK; Designed peptide) [compound 215]	6
57 (HVRPFY; Designed peptide) [compound 57]	9
189 (HHNAPI; Designed peptide) [compound 189]	6
66 (SGYYRV; Designed peptide) [compound 66]	9
55 (GTRHPS; Designed peptide) [compound 55]	9
173 (EEKTRR; Designed peptide) [compound 173]	6
70 (AVGCHV; Designed peptide) [compound 70]	8
101 (YEGRND; Designed peptide) [compound 101]	8
95 (VGHVNW; Designed peptide) [compound 95]	8
97 (VISLET; Designed peptide) [compound 97]	8
2 (CLSNLA; Designed peptide) [compound 2]	21
248 (SHWRSY; Designed peptide) [compound 248]	6
191 (HLAHKK; Designed peptide) [compound 191]	6
130 (NASRFY; Designed peptide) [compound 130]	7
234 (RHGQFF; Designed peptide) [compound 234]	6
184 (GPCNSA; Designed peptide) [compound 184]	6
164 (AKQRFT; Designed peptide) [compound 164]	6
256 (STSVDW; Designed peptide) [compound 256]	6
241 (RSSAKR; Designed peptide) [compound 241]	6
4 (HLRSIR; Designed peptide) [compound 4]	18
